Assay results reported in ChEMBL document CHEMBL1201862, “PubChem BioAssay data set” (2004).
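Cultured in 96-well plates, cells were exposed to test compound for 48 hours across five concentrations. GI50 is the concentration that inhibits growth by half.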 The source made the active and inactive calls. Rule as the data show it: active = GI50 up to about 1.1 µM and inactive = higher.

Tests used:
Test in all cases: inhibition of tumour cell growth, NCI panel, 48 h
MDA-MB-435 = tested on: MDA-MB-435
HL-60 = tested on: HL-60
BT-549 = tested on: BT-549
UACC-257 = tested on: UACC-257
SNB-19 = tested on: SNB-19
NCI/ADR-RES = tested on: NCI/ADR-RES
SN12C = tested on: SN12C
UACC-62 = tested on: UACC-62
SK-MEL-28 = tested on: SK-MEL-28
HCC 2998 = tested on: HCC 2998
OVCAR-3 = tested on: OVCAR-3
SK-MEL-2 = tested on: SK-MEL-2
SK-MEL-5 = tested on: SK-MEL-5
PC-3 = tested on: PC-3
K562 = tested on: K562
OVCAR-8 = tested on: OVCAR-8
TK-10 = tested on: TK-10
NCI-H23 = tested on: NCI-H23
ACHN = tested on: ACHN
SK-OV-3 = tested on: SK-OV-3
SF-268 = tested on: SF-268
IGROV-1 = tested on: IGROV-1
LOX IMVI = tested on: LOX IMVI
MOLT-4 = tested on: MOLT-4
CCRF-CEM = tested on: CCRF-CEM
786-0 = tested on: 786-0
COLO 205 = tested on: COLO 205
MDA-MB-231 = tested on: MDA-MB-231
OVCAR-4 = tested on: OVCAR-4
U-251 = tested on: U-251
NCI-H226 = tested on: NCI-H226
HCT-15 = tested on: HCT-15
SW-620 = tested on: SW-620
DU-145 = tested on: DU-145
UO-31 = tested on: UO-31
NCI-H460 = tested on: NCI-H460
CAKI-1 = tested on: CAKI-1
SF-295 = tested on: SF-295
A498 = tested on: A498
OVCAR-5 = tested on: OVCAR-5
NCI-H522 = tested on: NCI-H522
M14 = tested on: M14
MDA-N = tested on: MDA-N
A549 = tested on: A549
KM12 = tested on: KM12
RPMI-8226 = tested on: RPMI-8226
RXF 393 = tested on: RXF 393
SF-539 = tested on: SF-539
HCT-116 = tested on: HCT-116
EKVX = tested on: EKVX
SNB-75 = tested on: SNB-75
HT-29 = tested on: HT-29
HOP-62 = tested on: HOP-62
MCF7 = tested on: MCF7
Malme-3M = tested on: Malme-3M
HOP-92 = tested on: HOP-92
SR = tested on: SR
Hs-578T = tested on: Hs-578T
T47D = tested on: T47D

CSc1nc(-c2cc3c(c(SC)n2)CCCCC3)cc2c1CCCCC2
GI50 (MDA-MB-435): > 100 µM (inactive)
GI50 (HL-60): > 100 µM (inactive)
GI50 (BT-549): > 100 µM (inactive)
GI50 (UACC-257): > 100 µM (inactive)
GI50 (SNB-19): > 100 µM (inactive)
GI50 (NCI/ADR-RES): > 100 µM (inactive)
GI50 (SN12C): > 100 µM (inactive)
GI50 (UACC-62): > 100 µM (inactive)
GI50 (SK-MEL-28): > 100 µM (inactive)
GI50 (HCC 2998): > 100 µM (inactive)
GI50 (OVCAR-3): > 100 µM (inactive)
GI50 (SK-MEL-2): > 100 µM (inactive)
GI50 (SK-MEL-5): > 100 µM (inactive)
GI50 (PC-3): > 100 µM (inactive)
GI50 (K562): > 100 µM (inactive)
GI50 (OVCAR-8): > 100 µM (inactive)
GI50 (TK-10): > 100 µM (inactive)
GI50 (NCI-H23): > 100 µM (inactive)
GI50 (ACHN): > 100 µM (inactive)
GI50 (SK-OV-3): 50.1 µM (inactive)
GI50 (SF-268): 50.7 µM (inactive)
GI50 (IGROV-1): 22.8 µM (inactive)
GI50 (LOX IMVI): > 100 µM (inactive)
GI50 (MOLT-4): > 100 µM (inactive)
GI50 (CCRF-CEM): > 100 µM (inactive)
GI50 (786-0): > 100 µM (inactive)
GI50 (COLO 205): > 100 µM (inactive)
GI50 (MDA-MB-231): > 100 µM (inactive)
GI50 (OVCAR-4): > 100 µM (inactive)
GI50 (U-251): > 100 µM (inactive)
GI50 (NCI-H226): > 100 µM (inactive)
GI50 (HCT-15): > 100 µM
GI50 (SW-620): > 100 µM (inactive)
GI50 (DU-145): > 100 µM (inactive)
GI50 (UO-31): > 100 µM (inactive)
GI50 (NCI-H460): > 100 µM (inactive)
GI50 (CAKI-1): > 100 µM (inactive)
GI50 (SF-295): > 100 µM (inactive)
GI50 (A498): > 100 µM (inactive)
GI50 (OVCAR-5): > 100 µM (inactive)
GI50 (NCI-H522): 7.67 µM (inactive)
GI50 (M14): > 100 µM (inactive)
GI50 (MDA-N): > 100 µM (inactive)
GI50 (A549): > 100 µM (inactive)
GI50 (KM12): > 100 µM (inactive)
GI50 (RPMI-8226): > 100 µM (inactive)
GI50 (RXF 393): > 100 µM (inactive)
GI50 (SF-539): > 100 µM (inactive)
GI50 (HCT-116): > 100 µM (inactive)
GI50 (EKVX): > 100 µM (inactive)
GI50 (SNB-75): 34.3 µM (inactive)
GI50 (HT-29): > 100 µM (inactive)
GI50 (HOP-62): 56.9 µM (inactive)

COC(=O)C1(CCCCCBr)CCCCCCCCCCC1=O (centres undefined)
GI50 (MDA-MB-435): 37.6 µM (inactive)
GI50 (HL-60): 30 µM (inactive)
GI50 (UACC-257): 23.7 µM (inactive)
GI50 (SNB-19): > 100 µM (inactive)
GI50 (NCI/ADR-RES): 37.2 µM (inactive)
GI50 (SN12C): 37.6 µM (inactive)
GI50 (UACC-62): 79.6 µM (inactive)
GI50 (SK-MEL-28): 35.3 µM (inactive)
GI50 (HCC 2998): 41.1 µM (inactive)
GI50 (OVCAR-3): 28.4 µM (inactive)
GI50 (SK-MEL-2): 28.9 µM (inactive)
GI50 (SK-MEL-5): 16.3 µM (inactive)
GI50 (PC-3): 44.1 µM (inactive)
GI50 (MCF7): 15.7 µM (inactive)
GI50 (K562): 32.9 µM (inactive)
GI50 (Malme-3M): 19.7 µM (inactive)
GI50 (OVCAR-8): 54.2 µM (inactive)
GI50 (HOP-92): 58.7 µM (inactive)
GI50 (TK-10): > 100 µM (inactive)
GI50 (NCI-H23): 45.9 µM (inactive)
GI50 (ACHN): 40.7 µM (inactive)
GI50 (SK-OV-3): > 100 µM (inactive)
GI50 (SF-268): 51.6 µM (inactive)
GI50 (IGROV-1): 30.5 µM (inactive)
GI50 (LOX IMVI): 27.3 µM (inactive)
GI50 (MOLT-4): 17.9 µM (inactive)
GI50 (CCRF-CEM): 22.6 µM (inactive)
GI50 (786-0): 30.3 µM (inactive)
GI50 (COLO 205): 31.8 µM (inactive)
GI50 (MDA-MB-231): 36.6 µM (inactive)
GI50 (OVCAR-4): 19.8 µM (inactive)
GI50 (U-251): 28.3 µM (inactive)
GI50 (NCI-H226): 23.6 µM (inactive)
GI50 (SR): 33.5 µM (inactive)
GI50 (HCT-15): 38.8 µM
GI50 (Hs-578T): > 100 µM (inactive)
GI50 (SW-620): 72.4 µM (inactive)
GI50 (DU-145): 88.5 µM (inactive)
GI50 (UO-31): 16.7 µM (inactive)
GI50 (NCI-H460): 58.6 µM (inactive)
GI50 (CAKI-1): 25.5 µM (inactive)
GI50 (SF-295): 35.6 µM (inactive)
GI50 (A498): 28.3 µM (inactive)
GI50 (OVCAR-5): 37.3 µM (inactive)
GI50 (NCI-H522): 20.5 µM (inactive)
GI50 (M14): 40.2 µM (inactive)
GI50 (MDA-N): 29.2 µM (inactive)
GI50 (A549): 31.3 µM (inactive)
GI50 (KM12): 46.5 µM (inactive)
GI50 (RXF 393): 23.4 µM (inactive)
GI50 (SF-539): 90.2 µM (inactive)
GI50 (HCT-116): 26.4 µM (inactive)
GI50 (EKVX): 78.9 µM (inactive)
GI50 (HT-29): 42.2 µM (inactive)
GI50 (HOP-62): > 100 µM (inactive)
GI50 (T47D): 32.8 µM (inactive)
